The source of these data is patent US10266550B2, “Bacterial topoisomerase I inhibitors with antibacterial activity” (The Florida International University Board of Trustees, priority 2016, dated 2019).

Assay [1] deals with E. coli topoisomerase I (Escherichia coli (strain K12), UniProt P06612). Kind of assay: biochemical. In kind it is biochemical. The method, then: Recombinant E. coli topoisomerase I and gyrase expressed in E. coli were purified as described previously.
E. coli Topoisomerase I Relaxation Activity Inhibition Assay
The relaxation activity of E. coli topoisomerase I was assayed in a buffer containing 10 mM Tris-HCl, pH 8.0, 50 mM NaCl, 0.1 mg/mL gelatin, and 0.5 mM MgCl2. Half microliter from the appropriate stock solutions of compounds dissolved in the solvent (DMSO) or the solvent alone (control) was mixed with 9.5 μL of the reaction buffer containing 10 ng of enzyme before the addition of 10 μL of reaction buffer containing 200 ng of supercoiled pBAD/Thio plasmid DNA purified by cesium chloride gradient as substrate. Following incubation at 37° C. for 30 min, the reactions were terminated by the addition of 4 μL of a stop buffer (50% glycerol, 50 mM EDTA, and 0.5% (v/v) bromophenol blue), and analyzed by agarose gel electrophoresis. The gels were stained in ethidium bromide and photographed under UV light.

Assay [2] addresses Human topoisomerase I (Homo sapiens (Human), UniProt P11387). Kind of assay: Human topoisomerase I relaxation inhibition assay. In kind it is biochemical. To be noted: read-out: Topoisomerase inhibitory activity (IC50) Human topo I (type IB). The method, then:
Human topoisomerase I relaxation assays were carried out with 0.5 U of enzyme in reaction buffer supplied by the manufacturer. The enzyme was mixed with the indicated concentration of compound dissolved before 200 ng of supercoiled pBAD/Thio plasmid DNA was added in the same buffer, for a final volume of 20 μL. Following incubation at 37° C. for 30 minutes, the reactions were terminated with a buffer containing 5% SDS, 0.25% bromophenol blue, and 25% glycerol, and analyzed by agarose gel electrophoresis.
Human topoisomerase I and topoisomerase IIα were purchased from TopoGen (Buena vista, CO, USA).

Assay [3] relates to E. coli (MG1655) WT. Briefly: MIC, microdilution in Mueller-Hinton Broth. To be noted: Escherichia coli, MG1655; wild type; read-out: Whole cell based antibacterial activity (MIC) E. coli (MG1655) WT. In general terms: In broth dilution the organism is exposed to a series of concentrations in liquid medium.
Assay [4] relates to all the test bacteria strains. Kind of assay: Whole cell antibacterial activity across all test strains. In kind it is cell-based. The conditions noted are these: range over strains; read-out: MICs against all the test bacteria strains.

pIC50: −log10 of the molar value. ≈ marks a conversion by molar mass, not a printed value.

Chain of E. coli topoisomerase I (P06612 whole entry, looked up): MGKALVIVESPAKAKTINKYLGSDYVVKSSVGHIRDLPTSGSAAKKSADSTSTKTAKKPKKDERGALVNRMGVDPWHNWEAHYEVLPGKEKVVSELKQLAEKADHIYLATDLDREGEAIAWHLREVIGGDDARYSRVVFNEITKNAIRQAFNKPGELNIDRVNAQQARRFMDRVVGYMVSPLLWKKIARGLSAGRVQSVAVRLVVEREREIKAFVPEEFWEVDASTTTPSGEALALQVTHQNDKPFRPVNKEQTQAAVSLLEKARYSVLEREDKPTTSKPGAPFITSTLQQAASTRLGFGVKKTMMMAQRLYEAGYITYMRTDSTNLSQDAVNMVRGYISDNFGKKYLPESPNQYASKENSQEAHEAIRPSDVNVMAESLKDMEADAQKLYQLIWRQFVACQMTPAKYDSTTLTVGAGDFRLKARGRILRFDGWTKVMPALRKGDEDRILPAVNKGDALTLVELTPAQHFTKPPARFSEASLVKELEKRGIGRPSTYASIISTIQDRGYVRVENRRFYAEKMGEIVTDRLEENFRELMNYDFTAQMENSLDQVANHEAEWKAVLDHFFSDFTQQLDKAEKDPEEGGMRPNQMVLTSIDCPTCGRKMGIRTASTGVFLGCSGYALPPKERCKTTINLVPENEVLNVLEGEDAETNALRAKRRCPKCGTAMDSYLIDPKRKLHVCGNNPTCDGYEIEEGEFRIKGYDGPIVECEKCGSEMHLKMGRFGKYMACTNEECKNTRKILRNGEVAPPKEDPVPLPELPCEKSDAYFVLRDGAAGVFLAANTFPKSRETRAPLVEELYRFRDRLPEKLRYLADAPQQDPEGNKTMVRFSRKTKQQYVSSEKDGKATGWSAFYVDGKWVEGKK
Chain of Human topoisomerase I (P11387 whole entry): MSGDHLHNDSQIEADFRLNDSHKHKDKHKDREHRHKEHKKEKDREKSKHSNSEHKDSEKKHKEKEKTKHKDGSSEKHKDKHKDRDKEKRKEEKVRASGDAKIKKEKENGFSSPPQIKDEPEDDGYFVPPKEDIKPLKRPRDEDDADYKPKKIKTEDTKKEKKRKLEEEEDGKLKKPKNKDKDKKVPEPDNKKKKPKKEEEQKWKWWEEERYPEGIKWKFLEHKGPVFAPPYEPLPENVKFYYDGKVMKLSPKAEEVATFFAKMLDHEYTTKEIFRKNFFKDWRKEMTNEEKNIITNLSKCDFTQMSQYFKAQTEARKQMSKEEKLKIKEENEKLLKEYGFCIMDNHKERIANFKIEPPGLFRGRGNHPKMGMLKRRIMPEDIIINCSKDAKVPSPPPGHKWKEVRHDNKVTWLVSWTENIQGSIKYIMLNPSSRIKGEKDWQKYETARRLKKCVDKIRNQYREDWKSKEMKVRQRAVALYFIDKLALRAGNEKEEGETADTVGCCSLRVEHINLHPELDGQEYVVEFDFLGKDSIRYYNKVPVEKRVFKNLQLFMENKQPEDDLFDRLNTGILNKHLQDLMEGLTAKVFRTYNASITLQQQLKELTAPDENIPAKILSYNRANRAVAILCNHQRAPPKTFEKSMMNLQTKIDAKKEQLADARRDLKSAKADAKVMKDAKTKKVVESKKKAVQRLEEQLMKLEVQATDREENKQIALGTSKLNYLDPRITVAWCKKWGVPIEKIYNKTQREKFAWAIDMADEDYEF

For orientation: pIC50 means −log10 of the IC50, conventionally taken in molar units. On to `CN1CCN(c2c(F)cc3c(=O)c(C(=O)O)cn4c3c2Oc2cc(N)ccc2-4)CC1` [Compound 11a, 9-Amino-5-fluoro-6-(4-methylpiperazin-1-yl)-3-oxo-3H-pyrido[3,2,1-kl]phenoxazine-2-carboxylic acid], for which the negative-log IC50 (pIC50) in assay [1] (Topoisomerase inhibitory activity (IC50) E. coli topo I (type IA), relaxation of supercoiled plasmid DNA) is 6.01 to 6.62; in assay [2], 4.81. In addition, in assay [1] (experimental, converted from IC50), the “PIC50 (pIC50 = −log IC50)” value came to 6.32. Further, the results for the MIC in assay [3] and in assay [4] were 6.25 µM (≈ 2.57 µg/mL) and 0.78 to 7.6 µM (≈ 0.32 to 3.12 µg/mL), respectively.
